# Legend:
# [1] = test system: male mice of BALB/c line; experiment: Passive Avoidance of mice in the Shuttle Chamber, memory disturbed by Scopolamine; assay type: in vivo; conditions: Scopolamine 0.3 mg/kg, injected 30 minutes before training; figures 1-3
# Procedure: Example 14. […] A shuttle chamber (Ugo Basile, Italy) consisted of two sections was used. […] The sections were connected through a hole which could be overlapped by a vertical door. The floor was made of transverse metal bars on which DC current impulses could be fed. Experiments were carried out in aged male mice of BALB/c line weighing 20-24 grams.
# Each group consisted of at least 8 animals. Animal was placed in light section, and latent period of the first entry into dark chamber was registered. Then the vertical door was closed and the animal was punished by 0.6 mA DC current for 3 seconds. After that it was taken back to its homecage. In 22-24 hours the same animal was placed again in light section of the shuttle chamber and latent period of its first entry into dark section, the total time of its stay in light section, and the number of entries into dark section, were registered. Each monitoring lasted for 5 minutes.
# Testing was carried out during the day time in isolated laboratory using white noise at level of about 70 decibel above human hearing threshold.
# Scopolamine causes the disturbance of training (memory loss) that results in […].
# [2] = target: T1, recombinant human 5-HT2C receptor (Homo sapiens, UniProt P28335); experiment: Radioligand binding to serotonin receptor 5-HT2C ([3H] Mesulergine, CHO-K1 membranes); conditions: 10 µM ligand
# T1 construct: expressed in transfected cells; host or cells: CHO-K1
# T1 sequence (P28335 33-458): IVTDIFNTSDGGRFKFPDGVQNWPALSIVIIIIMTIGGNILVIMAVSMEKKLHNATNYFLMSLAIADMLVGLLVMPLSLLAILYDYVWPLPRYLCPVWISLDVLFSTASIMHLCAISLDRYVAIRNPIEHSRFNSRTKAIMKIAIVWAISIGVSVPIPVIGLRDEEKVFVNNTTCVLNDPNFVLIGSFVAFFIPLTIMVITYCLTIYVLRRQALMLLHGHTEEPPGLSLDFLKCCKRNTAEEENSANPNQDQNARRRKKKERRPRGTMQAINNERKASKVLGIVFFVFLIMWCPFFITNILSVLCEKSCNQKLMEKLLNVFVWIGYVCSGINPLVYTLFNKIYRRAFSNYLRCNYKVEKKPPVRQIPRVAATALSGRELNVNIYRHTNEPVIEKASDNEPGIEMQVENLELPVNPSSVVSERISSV
# Source text: J Neurochem. 69: 1449 - 1458, 1997]. […] SB242084 is used as positive control.
# [3] = target: T2, recombinant human 5-HT2A receptor (Homo sapiens, UniProt P28223); experiment: Radioligand binding to serotonin receptor 5-HT2A ([3H] Ketanserin, CHO-K1 membranes); conditions: 10 µM ligand
# T2 construct: expressed in transfected cells; host or cells: CHO-K1
# T2 sequence (P28223 whole entry): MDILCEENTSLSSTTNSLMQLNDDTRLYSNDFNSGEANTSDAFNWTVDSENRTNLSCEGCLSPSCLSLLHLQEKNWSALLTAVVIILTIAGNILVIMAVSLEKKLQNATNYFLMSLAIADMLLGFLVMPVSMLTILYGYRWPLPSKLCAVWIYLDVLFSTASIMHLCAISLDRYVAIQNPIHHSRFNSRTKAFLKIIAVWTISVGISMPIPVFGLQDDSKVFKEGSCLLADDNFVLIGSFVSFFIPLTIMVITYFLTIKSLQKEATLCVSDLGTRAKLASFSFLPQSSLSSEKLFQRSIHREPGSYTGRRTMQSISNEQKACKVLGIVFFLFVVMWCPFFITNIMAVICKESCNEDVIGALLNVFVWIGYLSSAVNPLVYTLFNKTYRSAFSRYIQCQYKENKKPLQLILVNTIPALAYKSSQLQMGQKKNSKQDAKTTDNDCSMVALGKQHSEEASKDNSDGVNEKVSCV
# Source text: 9-C. […] J Neurochem. […] Ketanserin is used as positive control.
# [4] = target: T3, serotonin receptor 5-HT1B (Rattus norvegicus, UniProt P28564); experiment: Radioligand binding to serotonin receptor 5-HT1B ([125I] cyanopindolol, rat brain cortex membranes); conditions: 10 µM ligand
# T3 construct: membrane species are prepared from rat brains (Wistar) by homogenization of species of rat brain-cortices; from tissue; host or cells: rat (Wistar) brain cortex
# T3 sequence (P28564 whole entry): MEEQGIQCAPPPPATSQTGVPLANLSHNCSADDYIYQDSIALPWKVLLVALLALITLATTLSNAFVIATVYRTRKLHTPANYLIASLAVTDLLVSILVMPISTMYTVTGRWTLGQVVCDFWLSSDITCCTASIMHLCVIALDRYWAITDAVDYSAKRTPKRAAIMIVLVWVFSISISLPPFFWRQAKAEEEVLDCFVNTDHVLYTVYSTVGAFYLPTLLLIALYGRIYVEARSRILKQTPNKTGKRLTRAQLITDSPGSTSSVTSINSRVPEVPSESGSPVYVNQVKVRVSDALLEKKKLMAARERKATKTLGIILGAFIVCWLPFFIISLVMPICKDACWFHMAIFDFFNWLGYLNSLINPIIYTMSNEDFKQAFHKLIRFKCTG
# Source text: Serotonin is used as positive control.
# [5] = target: T4, recombinant human 5-HT2B receptor (Homo sapiens, UniProt P41595); experiment: Radioligand binding to serotonin receptor 5-HT2B ([3H] Lysergic acid diethylamide, CHO-K1 membranes); conditions: 10 µM ligand
# T4 construct: expressed in transfected cells; host or cells: CHO-K1
# T4 sequence (P41595 whole entry): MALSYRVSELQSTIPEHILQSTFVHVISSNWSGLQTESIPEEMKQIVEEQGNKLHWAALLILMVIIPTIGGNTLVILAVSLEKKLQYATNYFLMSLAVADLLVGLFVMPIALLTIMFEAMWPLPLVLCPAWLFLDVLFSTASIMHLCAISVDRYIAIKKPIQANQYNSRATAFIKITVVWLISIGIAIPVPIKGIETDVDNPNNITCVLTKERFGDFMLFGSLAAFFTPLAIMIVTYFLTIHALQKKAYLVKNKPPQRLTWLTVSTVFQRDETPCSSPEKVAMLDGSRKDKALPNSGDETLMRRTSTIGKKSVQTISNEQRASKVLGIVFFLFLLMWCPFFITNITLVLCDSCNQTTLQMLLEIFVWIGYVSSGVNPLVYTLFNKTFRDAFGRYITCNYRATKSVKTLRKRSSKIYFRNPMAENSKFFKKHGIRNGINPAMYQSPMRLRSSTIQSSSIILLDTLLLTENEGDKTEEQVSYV
# Procedure: For this purpose membrane species are prepared from CHO-K1 cells comprising recombinant human 5-HT2B receptor by homogenization of recombinant cells in glass homogenizer with the subsequent separation of plasmatic membranes from cell nuclei, mitochondrias and cell wreckages by differential centrifugation. […] After incubation the samples are filtered in vacuo on glass-microfiber filters G/F (Millipor, USA), filters are washed three times with cold solution of medium and radioactivity is measured by scintillation counter MicroBeta 340 (Perkin Elmer, USA). […] Ketanserin is used as positive control. The tested compounds' binding to the receptor is determined by their ability to displace the radioligand and is expressed in percent of displacement (%I). Values of %I are calculated according to the following equation: %I = (TA-CA)/(TA-NA)*100, [formula] wherein: TA - is the overall radioactivity in the presence of radioligand only, CA - is the radioactivity in the presence of radioligand and tested compound and NA - is the radioactivity in the presence of radioligand and Serotonin (10 µM).
# [6] = target: T5, human H1 receptor (Homo sapiens, UniProt P35367); experiment: Radioligand binding to histamine receptor H1 ([3H] Pyrilamine, CHO-K1 membranes); conditions: 10 µM ligand; 10 µM
# T5 construct: expressed in transfected cells; host or cells: CHO-K1
# T5 sequence (P35367 whole entry): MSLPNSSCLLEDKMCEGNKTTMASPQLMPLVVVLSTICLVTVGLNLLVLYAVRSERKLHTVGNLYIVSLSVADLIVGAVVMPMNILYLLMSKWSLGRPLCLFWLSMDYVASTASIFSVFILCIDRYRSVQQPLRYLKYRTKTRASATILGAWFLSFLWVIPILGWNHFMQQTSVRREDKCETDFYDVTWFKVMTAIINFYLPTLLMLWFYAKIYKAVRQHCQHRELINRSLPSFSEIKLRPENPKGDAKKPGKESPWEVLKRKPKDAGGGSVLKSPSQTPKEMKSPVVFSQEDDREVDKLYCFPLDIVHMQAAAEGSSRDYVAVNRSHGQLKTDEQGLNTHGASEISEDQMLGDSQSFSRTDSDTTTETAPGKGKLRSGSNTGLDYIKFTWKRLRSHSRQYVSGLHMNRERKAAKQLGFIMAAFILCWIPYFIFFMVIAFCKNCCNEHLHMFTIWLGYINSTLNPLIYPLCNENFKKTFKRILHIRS
# Source text: Biochem Biophys Res Comm. 197(3): 1601-1608, 1993]. […] Biochem Biophys Res Comm. 197(3): 1601-1608, 1993].
# Pyrilamine is used as positive control.
# [7] = target: T6, human H2 receptor (Homo sapiens, UniProt P25021); experiment: Radioligand binding to histamine receptor H2 ([125I] Aminopotentidine, CHO-K1 membranes); conditions: 10 µM ligand
# T6 construct: expressed in transfected cells; host or cells: CHO-K1
# T6 sequence (P25021 whole entry): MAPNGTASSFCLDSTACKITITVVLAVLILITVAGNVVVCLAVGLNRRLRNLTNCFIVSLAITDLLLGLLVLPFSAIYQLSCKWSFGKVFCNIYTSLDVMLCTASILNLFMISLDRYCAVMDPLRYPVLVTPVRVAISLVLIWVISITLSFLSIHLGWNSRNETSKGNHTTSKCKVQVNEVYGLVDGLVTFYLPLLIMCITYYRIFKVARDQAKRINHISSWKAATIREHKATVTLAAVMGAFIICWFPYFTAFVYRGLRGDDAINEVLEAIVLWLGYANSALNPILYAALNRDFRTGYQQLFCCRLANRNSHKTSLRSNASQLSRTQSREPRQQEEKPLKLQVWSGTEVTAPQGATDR
# Source text: Proc Natl Acad Sci USA. 87(5): 1658-1662, 1990]. […] Proc Natl Acad Sci USA. 87(5): 1658-1662, 1990]. […] Tiotidine is used as positive control.
structure (smiles),measurement,setting,value
Cc1ccc2c(c1)c1c(n2/C=C\c2ccccc2)CCN(C)C1 [1.1(6)],enhancement of memory disturbed by Scopolamine,[1],improve memory
same,5-HT2C % inhibition,[2],101%
same,5-HT2A % inhibition,[3],100%
same,5-HT1B % inhibition,[4],86%
same,5-HT2B % inhibition,[5],98%
COc1ccc2c(c1)c1c(n2CCc2ccccn2)CCN(C)C1 [1.1.2(2-4)·2HCl],enhancement of memory disturbed by Scopolamine,[1],improve memory
"Cc1ccc2c(c1)c1c(n2CCc2ccc(C)nc2)CCN(C)C1 [1.1.2(4-4)·2CH3SO3H, 2,8-dimethyl-5-[2-(4-methylpyridin-3-yl)ethyl]-1,2,3,4-tetrahydro-1H-pyrido[4,3-b]indole bis-methylsulfonate]","Histamine receptors, % inhibition H1",[6],102%
same,inhibition at 10 µM,"[7]; read-out: Histamine receptors, % inhibition H2",99%
"Cc1ccc2c(c1)c1c(n2CCc2ccc(C)nc2)CCN(C)C1 [1.1.2(4-5)·1/2NDSA, 2,8-dimethyl-5-[2-(4-methylpyridin-3-yl)ethyl]-1,2,3,4-tetrahydro-1H-pyrido[4,3-b]indole naphtalene-1,5-disulfonate]","Histamine receptors, % inhibition H2",[7]; 10 µM,100%

# Source: patent EP2236511A2, “LIGANDS OF ALPHA-ADRENOCEPTORS AND OF DOPAMINE, HISTAMINE, IMIDAZOLINE AND SEROTONIN RECEPTORS AND THE USE THEREOF” (priority 2007, dated 2009)
